Results from patent US8674063B2, “Chimerical peptidic molecules with antiviral properties against the viruses of the Flaviviridae family” (Centro de Ingenieria Genetica y Biotecnologia, priority 2006, dated 2014).

Legend:
Assay type in all cases: cell-based
[1] = Cytotoxic effect (CTE) of peptides on Vero cell monolayer; settings: Vero cell monolayer; Vero cells; read-out: CTE: peptide concentration causing damage to 50% of the monolayer
[2] = system: Vero cells; assay: as above; settings: at the assayed conditions
[3] = system: dengue 2 virus (DV2, strain S16803); assay: Plaque reduction neutralization assay (PRNT) in Vero cells, dengue 2 virus; settings: for antiviral activity (inhibition of infection by DV2, plaque reduction), in words: Vero cells
Experimental: Vero cells were grown in 24-well plates to approximately 90% confluence, and washed twice with MEM medium without FCS. Peptide dilutions were added according to the particular assay and incubated typically during 1 h at 37° C. After the incubation, the virus was added at a multiplicity of infection of 0.1, followed by a subsequent incubation for 1 hour at 37 C. In certain experiments the peptides were added simultaneously with the virus (without preincubation) or the peptide preincubation time was modified. At the end of the second incubation, the unbound virus was eliminated by washing, and the cells were incubated for 5 days at 37 C in high density medium (MEM supplemented with non essential amino acids, 1% FCS, 1% carboxymethylcellulose) in order to propitiate the appearance of lytic plaques. The plaques were visualized by staining with 0.1% Naphtol Blue Black in 0.15 Mol/L sodium acetate. Two replicates were used per experimental point in each assay, and three independent determinations were performed. The inhibition percentage was calculated according to the expression: […]
In order to determine the role of the cell penetrating peptide and the ER retention signal on the antiviral activity of peptides of the present invention we tested peptides No 1, 2, 3 and 4 of table 1 for inhibition of the viral infection by VD2 in Vero cells, using the assay described in the example 2.

Molecule | CC50 [1] | antiviral activity (inhibition of infection by DV2, plaque reduction), in words [3] | also measured
CC[C@H](C)[C@H](NC(=O)[C@H](CO)NC(=O)[C@H](CC(C)C)NC(=O)[C@@H](NC(=O)[C@@H]1CCCN1C(=O)[C@H](CO)NC(=O)[C@H](CO)NC(=O)CNC(=O)CNC(=O)CNC(=O)[C@H](CCC(N)=O)NC(=O)[C@@H]1CCCN1C(=O)[C@@H]1CCCN1C(=O)[C@H](CCCNC(=N)N)NC(=O)[C@H](CCCNC(=N)N)NC(=O)[C@H](CCCNC(=N)N)NC(=O)[C@H](CCC(N)=O)NC(=O)[C@H](CCCNC(=N)N)NC(=O)[C@H](CCCNC(=N)N)NC(=O)[C@H](CCCCN)NC(=O)[C@H](CCCCN)NC(=O)[C@H](CCCNC(=N)N)NC(=O)CNC(=O)[C@@H](N)Cc1ccc(O)cc1)[C@@H](C)CC)C(=O)N[C@H](C(=O)N[C@H](C(=O)N[C@@H](CO)C(=O)N[C@@H](CCC(=O)O)C(=O)N[C@@H](CC(=O)O)C(=O)NCC(=O)NCC(=O)NCC(=O)N[C@@H](CCCCN)C(=O)N[C@@H](CC(=O)O)C(=O)N[C@@H](CCC(=O)O)C(=O)N[C@@H](CC(C)C)C(=O)O)[C@@H](C)CC)[C@@H](C)O [NS2Bden2 + TAT + KDEL] | > 150 µM | – | –
CC[C@H](C)[C@H](NC(=O)[C@H](CO)NC(=O)[C@H](CC(C)C)NC(=O)[C@@H](NC(=O)[C@@H]1CCCN1C(=O)[C@H](CO)NC(=O)[C@H](CO)NC(=O)CNC(=O)CNC(=O)CNC(=O)[C@H](CCC(N)=O)NC(=O)[C@@H]1CCCN1C(=O)[C@@H]1CCCN1C(=O)[C@H](CCCNC(=N)N)NC(=O)[C@H](CCCNC(=N)N)NC(=O)[C@H](CCCNC(=N)N)NC(=O)[C@H](CCC(N)=O)NC(=O)[C@H](CCCNC(=N)N)NC(=O)[C@H](CCCNC(=N)N)NC(=O)[C@H](CCCCN)NC(=O)[C@H](CCCCN)NC(=O)[C@H](CCCNC(=N)N)NC(=O)CNC(=O)[C@@H](N)Cc1ccc(O)cc1)[C@@H](C)CC)C(=O)N[C@H](C(=O)N[C@H](C(=O)N[C@@H](CO)C(=O)N[C@@H](CCC(=O)O)C(=O)N[C@@H](CC(=O)O)C(=O)NCC(N)=O)[C@@H](C)CC)[C@@H](C)O [NS2Bden2+TAT] | 150 µM | – | –
CC[C@H](C)[C@H](NC(=O)[C@H](CCCCN)NC(=O)[C@@H](NC(=O)[C@H](CCC(N)=O)NC(=O)[C@@H](N)CCCNC(=N)N)[C@@H](C)CC)C(=O)N[C@@H](Cc1c[nH]c2ccccc12)C(=O)N[C@@H](Cc1ccccc1)C(=O)N[C@@H](CCC(N)=O)C(=O)N[C@@H](CC(N)=O)C(=O)N[C@@H](CCCNC(=N)N)C(=O)N[C@@H](CCCNC(=N)N)C(=O)N[C@@H](CCSC)C(=O)N[C@@H](CCCCN)C(=O)N[C@@H](Cc1c[nH]c2ccccc12)C(=O)N[C@@H](CCCCN)C(=O)N[C@@H](CCCCN)C(=O)NCC(=O)NCC(=O)NCC(=O)N[C@@H](CO)C(=O)N[C@@H](CO)C(=O)N1CCC[C@H]1C(=O)N[C@H](C(=O)N[C@@H](CC(C)C)C(=O)N[C@@H](CO)C(=O)N[C@H](C(=O)N[C@H](C(=O)N[C@H](C(=O)N[C@@H](CO)C(=O)N[C@@H](CCC(=O)O)C(=O)N[C@@H](CC(=O)O)C(=O)NCC(N)=O)[C@@H](C)CC)[C@@H](C)O)[C@@H](C)CC)[C@@H](C)CC [NS2Bden2-pP2] | 50 µM | – | toxicity on the cells, in words [2]: significant cytotoxicity
CC[C@H](C)[C@H](NC(=O)[C@H](CO)NC(=O)[C@H](CC(C)C)NC(=O)[C@@H](NC(=O)[C@@H]1CCCN1C(=O)[C@H](CO)NC(=O)[C@H](CO)NC(=O)CNC(=O)CNC(=O)CNC(=O)[C@H](CCCNC(=N)N)NC(=O)[C@H](CCCNC(=N)N)NC(=O)[C@H](CCCNC(=N)N)NC(=O)[C@H](CCCNC(=N)N)NC(=O)[C@H](CCCNC(=N)N)NC(=O)[C@H](CCCNC(=N)N)NC(=O)[C@H](CCCNC(=N)N)NC(=O)[C@H](CCCNC(=N)N)NC(=O)[C@H](CCCNC(=N)N)NC(=O)[C@@H](N)CCCNC(=N)N)[C@@H](C)CC)C(=O)N[C@H](C(=O)N[C@H](C(=O)N[C@@H](CO)C(=O)N[C@@H](CCC(=O)O)C(=O)N[C@@H](CC(=O)O)C(=O)NCC(N)=O)[C@@H](C)CC)[C@@H](C)O [NS2Bden2-pRR] | > 50 µM | – | –
TAT peptide: YGRKKRRQRRRPPQ; SEQ ID NO 64; cell penetrating TAT peptide, negative control (Description of the Artificial Sequence chimerical peptide) [reference compound] | – | did not show antiviral activity | number of plaques in presence of peptide ([3]; DV2, Vero cells, FIG. 2B): increase in the number of plaques
segment [I] of peptide NS2Bden2+TAT (SSPILSITISEDG), lacks the cell penetrating segment | – | does not inhibit | antiviral activity (inhibition of infection by DV2, plaque reduction), in words ([3]; listed as NS3pro protease activation inhibitor segment [I]): does not show antiviral activity in vitro
